Earlier results as cited in US7829576B2 (priority 2008, dated 2010).

System: pain intensity
Settings: study completers, double-blind placebo-controlled; cited from earlier work

Q: With `CNCCCC12CCC(c3ccccc31)c1ccccc12` [maprotiline] as the compound, how does the “reduction in pain intensity” value read?
A: 45%

Q: For `Fc1ccc([C@@H]2CCNC[C@H]2COc2ccc3c(c2)OCO3)cc1` [paroxetine], which “reduction in pain intensity” value is on record?
A: 26%
